Laboratory results taken from PMC7802073, “Small Molecule Inhibitors of the Bacterioferritin (BfrB)–Ferredoxin (Bfd) Complex Kill Biofilm-Embedded Pseudomonas aeruginosa Cells” (ACS Infectious Diseases, 2020).
Converted amounts (≈) assume the structure as drawn. Like-named read-outs stand apart in the source and are kept apart here.

Legend:
PA_1081725 = details: isolate purchased from JMI Laboratories, no MIC method given; cited from earlier work
PA_1076058 = details: isolate purchased from JMI Laboratories, no MIC method given; cited from earlier work
P. aeruginosa = tested on: P. aeruginosa; set-up: method as in PMID 11420333; details: cited from earlier work
[1] = tested on: Pellicles of P. aeruginosa PAO1 expressing EYFP; assay: Pellicle biofilm assay, CLSM imaging and COMSTAT viable biomass; type: cell-based, Pseudomonas aeruginosa; details: 2-day old pellicles, 24 h
Procedure: Pellicle biofilms of EYFP-expressing P. aeruginosa PAO1 or clinical isolates were grown in PI media supplemented with 20 μM Fe. Starter cultures were diluted to OD600 = 0.001 in 4 mL media, placed in 35 × 10 mm Petri dishes and incubated statically at 30 °C for 48 h. The pellicles were transferred onto circular (1.5 cm diameter) glass coverslips by gently allowing the surface of a coverslip to contact a pellicle. The pellicle-adhered coverslip was washed in PBS and then deposited on top of 1.5 mL AB challenge media contained in a well of a 12-well microplate, with the pellicle exposed to the media. […] The coverslip-adhered pellicles were exposed to challenge media at 30 °C for 24 h, changing the challenge media every 12 h by transferring the pellicle-adhered coverslip to a new plate containing prewarmed challenge media.
Excess fluorescent dye was washed with PBS, the coverslip was mounted on a glass slide using 5 μL SlowFade (Invitrogen Life Technologies) and the edges sealed with fingernail polish. CLSM image stacks (z-step size of 0.3 μm) were acquired with the aid of a Leica TCS SP8 microscope, as described above. Quantitative analysis was performed by determination of pellicle biomass using COMSTAT[55] and the Otsu method of automatic thresholding.[86]

[2] = tested on: EYFP-expressing P. aeruginosa PAO1 biofilms; assay: Flow cell biofilm assay, CLSM imaging and COMSTAT viable biomass; type: cell-based, Pseudomonas aeruginosa; details: 3-day old flow cell biofilms, 24 h treatment, 25× MIC
Excerpt: The treated biofilms were counterstained with the cell impermeable fluorescent nucleic acid dye Sytox Red and then imaged with the aid of confocal laser scanning microscopy (CLSM).
Image stacks were acquired with a z-step size of 0.3 μm at randomly chosen positions.

[3] = tested on: EYFP-expressing P. aeruginosa PAO1 pellicles; assay: Viable cells (CFU/mL) dispersed from pellicle biofilms; type: cell-based, Pseudomonas aeruginosa; details: 2-day old pellicles, 24 h
Procedure: Pellicle biofilms were grown as described above. Planktonic and loosely attached cells were washed (3 times) by immersing the coverslip-adhered pellicles (biofilm facing up) into a well of a 12-well plate containing 3 mL PBS, and incubating (5 min) with gentle rocking. To remove the pellicle from the coverslip, break the extracellular matrix and release cells from the biofilm, the coverslip-adhered pellicle was placed in a 50 mL conical tube containing a 2 mL suspension of zirconia beads (0.1 mm diameter, BioSpec Products), 10 mL PBS, 0.2 μg/mL alginate lyase and 0.2 μg/mL DNase. The resultant mixture was incubated at room temperature for 3 min, followed by vigorous vortexing for 4 min. After sedimentation of the zirconia beads, a 100 μL aliquot was used for serial dilution and plating on PIA plates for subsequent enumeration of viable cells (CFU/mL).

BfrB [4] = biological target: T1, BfrB (Pseudomonas aeruginosa, UniProt Q9HY79); assay: Dissociation constant (Kd) for BfrB by fluorescence polarization; type: binding
T1 sequence (Q9HY79 whole entry): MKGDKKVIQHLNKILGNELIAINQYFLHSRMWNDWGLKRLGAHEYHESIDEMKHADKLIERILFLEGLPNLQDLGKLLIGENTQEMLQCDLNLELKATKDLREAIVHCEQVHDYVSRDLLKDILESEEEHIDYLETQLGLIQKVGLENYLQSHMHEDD
Procedure: Dissociation constants for the interaction between BfrB and 3-aminoisoindoline-1,3-dione derivatives (Table 1, Figure S1) were measured in vitro with a fluorescence polarization method based on the intrinsic fluorescence of the isoindoline-1,3-dione moiety, as described previously.[25]
25 (A) and KM-5-66 (B) for BfrB, evaluated by fluorescence polarization, as described previously1.
Values were obtained in 100 mM potassium phosphate buffer (pH 7.6) containing 1 mM TCEP and
0.5% DMSO. The initial concentrations of KM-5-25 and KM-5-66 were 5 µM. The Kd values are the
average and standard deviation from three independent measurements. […]

P. aeruginosa PAO1 [5] = assay: Half maximal inhibitory concentration (IC50) on planktonic growth, CFU/mL enumeration; type: cell-based, Pseudomonas aeruginosa; details: 24 h, 35 °C, 2% DMSO, this work
Procedure: Chemicals were purchased from Fisher Scientific unless otherwise stated. P. aeruginosa PAO1 was obtained from the University of Washington Genome center.[81] The PAO1 strain expressing enhanced yellow fluorescent protein (EYFP) was prepared previously.[26] Clinical isolates of P. aeruginosa were purchased from JMI Laboratories (North Liberty, IA, USA). […] Starter cultures were grown from a single colony at 37 °C and shaking at 220 rpm for 14 h in 5 mL PI media supplemented with 10 μM Fe. Pellicle biofilms were cultured for 48 h at 30 °C in PI media supplemented with 20 μM Fe. Surface-attached biofilms were cultured in AB minimal media[82] supplemented with trace metals [0.15 μM (NH4)2MoO4, 3 μM CuSO4, 2 μM Co(NO3)2, 9.4 μM Na2B4O7, and 7.6 μM ZnSO4], 3 mM glucose and 15 μM Fe. Iron supplementation was carried out by addition of a small volume of filter-sterilized 10 mM (NH4)2Fe(SO4)2 (pH ∼ 2.0) solution. […]; IC50 values (Table 1, Figure S1) were determined as reported previously[25] with small modifications. In brief: precultures of P. aeruginosa PAO1 (5 mL) were grown in LB media for 13 h at 37 °C and 220 rpm in 50 mL conical tubes (VWR International, PA). The cells were centrifuged for 5 min at 4000 rpm and 4 °C, washed two times and then diluted in buffer (100 mM KH2PO4 and 15 mM (NH4)2SO4) to an optical density at 600 nm (OD600) of 0.1. A small volume of compound stock solution (10 mM) was transferred to a microcentrifuge tube, initially diluted with DMSO to 20 μL, and then diluted to 1 mL with preculture cell suspension in defined media with OD600 = 0.0001, so the final DMSO concentration is 2%. The resultant cell suspension (200 μL) was transferred to a clear-bottom polystyrene 96-well plate (VWR) covered with a lid and incubated at 35 °C and 205 cpm for 24 h in a Synergy H1 microplate reader (Biotek Instruments Inc., Vermont). The cell cultures were serially diluted and then plated on PI Agar (PIA; BD biosciences) plates for enumeration of viable cells (CFU/mL). The % growth was calculated from the ratio CFU/mL(treated)/CFU/mL(untreated control). To calculate the IC50 values, the % growth was plotted as a function of compound concentration, expressed as log[compound] (μM), and fitted to the 4-parameter logistic model describing the sigmoid-shaped response pattern (eq 1),[84] where b is the slope factor, max is the upper asymptote (plateau), and min is the lower asymptote. Values are the average and standard deviation from three independent experiments. [drawing 1] 1

P. aeruginosa PAO1 [6] = tested on: P. aeruginosa PAO1; set-up: method as in PMID 31038945; details: planktonic growth, cited from earlier work
Aqueous solubility = type: physicochemical; details: for solubility: PBS buffer, read-out: solubility in PBS buffer; for aqueous solubility (in words): aqueous solution
BfrB [7] = biological target: T1, BfrB; details: Bfd binding sites on BfrB equivalent and independent; cited from earlier work
[8] = Pseudomonas aeruginosa, PAO1, defined media, read-out: IC50

C[C@H]1c2cccc(O)c2C(=O)C2=C(O)[C@]3(O)C(=O)C(C(N)=O)=C(O)[C@@H](N(C)C)[C@@H]3[C@@H](O)[C@@H]21 [Doxycycline]
MIC (PA_1081725): 4 µg/mL (≈ 9 µM)
MIC (PA_1076058): > 8 µg/mL

NC[C@H]1O[C@H](O[C@H]2[C@H](O)[C@@H](O[C@H]3O[C@H](CO)[C@@H](O)[C@H](N)[C@H]3O)[C@H](N)C[C@@H]2N)[C@H](N)C[C@@H]1O [tobramycin]
MIC (P. aeruginosa; reported MIC converted to μM): 1.07 µM
MIC (P. aeruginosa; reported MIC): 0.5 µg/mL
MIC (PA_1081725): 16 µg/mL (≈ 34.2 µM)
tolerance of pellicle biofilms (CLSM) ([1]; 25× and 50× the MIC): tolerant
% survival (viable biomass, COMSTAT) [2]: ~70%
MIC (PA_1076058): > 16 µg/mL
% cell survival, CFU/mL(after treatment)/CFU/mL(pretreatment) ([3]; 25× MIC): ~70%
% cell survival, CFU/mL(after treatment)/CFU/mL(pretreatment) ([3]; 50× MIC): ~70%

CNC(C)C1CCC(N)C(OC2C(N)CC(N)C(OC3OCC(C)(O)C(NC)C3O)C2O)O1 (stereo not shown) [Gentamicin]
MIC (PA_1081725): 4 µg/mL (≈ 8.38 µM)
MIC (PA_1076058): > 16 µg/mL

O=C1NC(=O)c2c(NCCCc3cc(F)ccc3O)cccc21 [JAG-5-6, 4-((3-(5-fluoro-2-hydroxyphenyl)propyl)amino)isoindoline-1,3-dione]
Kd (BfrB [4]): 0.43 ± 0.07 µM
IC50 (P. aeruginosa PAO1 [5]; [8]): 54 ± 9 µM

CC(C)(O/N=C(\C(=O)N[C@@H]1C(=O)N2C(C(=O)[O-])=C(C[n+]3ccccc3)CS[C@H]12)c1csc(N)n1)C(=O)O [Ceftazidime]
MIC (PA_1081725): > 32 µg/mL
MIC (PA_1076058): > 32 µg/mL

O=C1NC(=O)c2c(NCCCc3cc(O)cc(O)c3)cccc21 [KM-5-57]
Kd (BfrB [4]): 2.5 ± 0.4 µM
IC50 (P. aeruginosa PAO1 [5]; defined media): not active at 200 μM

O=C1NC(=O)c2c(NCCCc3cccc(O)c3)cccc21 [Analog 16]
IC50 (P. aeruginosa PAO1 [6]; read-out: IC50): 121 ± 4 µM

O=C1NC(=O)c2c(NCc3cccc(Cl)c3O)cccc21 [KM-5-30, 4-((3-Chloro-2-hydroxybenzyl)amino)isoindoline-1,3-dione]
Kd (BfrB [4]): 6 ± 1 µM
IC50 (P. aeruginosa PAO1 [5]; [8]): 156 ± 30 µM

O=C1NC(=O)c2c(NCCCc3ccccc3O)cccc21 [KM-5-28]
Kd (BfrB [4]): 1.4 ± 0.2 µM
IC50 (P. aeruginosa PAO1 [5]; [8]): 96 ± 1 µM

O=C1NC(=O)c2c(NCc3c(O)cccc3Cl)cccc21 [KM-5-29, 4-((6-Chloro-2-hydroxybenzyl)amino)isoindoline-1,3-dione]
solubility (Aqueous solubility): < 30 µM
aqueous solubility (in words) (Aqueous solubility): poorly soluble in aqueous solution
Kd (BfrB [4]): 6 ± 0.5 µM

C[C@@H](O)[C@H]1C(=O)N2C(C(=O)O)=C(S[C@@H]3CN[C@H](C(=O)N(C)C)C3)[C@H](C)[C@H]12 [Meropenem]
MIC (PA_1081725): 32 µg/mL (≈ 83.4 µM)
MIC (PA_1076058): 4 µg/mL (≈ 10.4 µM)

colistin
MIC (P. aeruginosa; reported MIC converted to μM): 0.79 µM
MIC (P. aeruginosa; reported MIC): 1 µg/mL
fluorescence signal from viable cells expressing EYFP ([1]; 50× MIC): undetectable
susceptibility of pellicle biofilms (CLSM) ([1]; concentrations above 10× MIC): susceptible
% survival (viable biomass, COMSTAT) [2]: ~20%
% cell survival, CFU/mL(after treatment)/CFU/mL(pretreatment) ([3]; 25× MIC): ~10%
% cell survival, CFU/mL(after treatment)/CFU/mL(pretreatment) ([3]; 50× MIC): ~1%

O=C1NC(=O)c2c(NCc3cc(O)cc(Cl)c3)cccc21 [KM-5-50, 4-((5-Chloro-3-hydroxybenzyl)amino)isoindoline-1,3-dione]
Kd (BfrB [4]): 11 ± 2 µM
IC50 (P. aeruginosa PAO1 [5]; [8]): 82 ± 16 µM

O=C1NC(=O)c2c(NCc3cccc(O)c3)cccc21 [BN-XIV-53]
Kd (BfrB [4]): 21 ± 3 µM
IC50 (P. aeruginosa PAO1 [5]; defined media): not active at 120 μM

C[C@H]1[C@H](NC(=O)/C(=N\OC(C)(C)C(=O)O)c2csc(N)n2)C(=O)N1S(=O)(=O)O [Aztreonam]
MIC (PA_1081725): > 16 µg/mL
MIC (PA_1076058): 16 µg/mL (≈ 36.7 µM)

NCC[C@H](O)C(=O)N[C@@H]1C[C@H](N)[C@@H](O[C@H]2O[C@H](CN)[C@@H](O)[C@H](O)[C@H]2O)[C@H](O)[C@H]1O[C@H]1O[C@H](CO)[C@@H](O)[C@H](N)[C@H]1O [Amikacin]
MIC (PA_1081725): 16 µg/mL (≈ 27.3 µM)
MIC (PA_1076058): 4 µg/mL (≈ 6.83 µM)

O=C1NC(=O)c2c(NCCCc3cc(Cl)ccc3O)cccc21 [KM-5-54]
solubility (Aqueous solubility): < 30 µM
aqueous solubility (in words) (Aqueous solubility): poor water solubility
Kd (BfrB [4]): 0.22 ± 0.04 µM

O=C1NC(=O)c2c(NCc3ccccc3O)cccc21 [Analog 11]
IC50 (P. aeruginosa PAO1 [6]; read-out: IC50): 258 ± 23 µM

O=C(O)c1cn(C2CC2)c2cc(N3CCNCC3)c(F)cc2c1=O [ciprofloxacin]
MIC (P. aeruginosa; reported MIC converted to μM): 0.75 µM
MIC (P. aeruginosa; reported MIC): 0.25 µg/mL
MIC (PA_1081725): 16 µg/mL (≈ 48.3 µM)
MIC (PA_1076058): > 16 µg/mL

Nc1cccc2c1C(=O)NC2=O [Analog 8, 4-aminoisoindoline-1,3-dione]
IC50 (P. aeruginosa PAO1 [6]): not active

O=C1NC(=O)c2c(NCc3cc(F)ccc3O)cccc21 [JAG-5-7, 4-((5-Fluoro-2-hydroxybenzyl)amino)isoindoline-1,3-dione]
Kd (BfrB [4]): 7 ± 2 µM
IC50 (P. aeruginosa PAO1 [5]; [8]): 128 ± 26 µM

B1: Bfd: bacterioferritin-associated ferredoxin, a [2Fe-2S] protein that binds BfrB to mobilize stored iron (protein, UniProt Q9HY80 1-73, looked up)
Bacterioferritin-associated …: MYVCLCQGVTDNQIRDAIYEGCCSYREVREATGVGTQCGKCACLAKQVVRETLNDLQSAQPVPAFGTTAFVAA
Kd (BfrB [7]): 3 µM
